The values below come from PubChem BioAssay AID298 (DTP/NCI, 2004).

In this assay the test system is MX-1 breast xenograft, intrarenal, nude mice, tumor weight. The experiment in a line: NCI In Vivo Anticancer Drug Screen. Data for tumor model Human Mammary Carcinoma MX-1 Xenograft (intrarenal inoculation) in NU/NU BALB/C (nude) mice. As to conditions: endpoint: mean tumor weight change, higher = larger tumour. Put shortly:
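Antitumor activity is expressed as a T/C ratio. The treated group's tumor size or survival is compared against the vehicle-treated control group in mice bearing transplanted tumors.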
(In general: A xenograft is tissue or cells of one species grown in another, often human tumour cells in immunodeficient mice.)

The mark [1] stands for this setting: dose: 1.25 mg/kg/injection, schedule: Q04DX003 (ip), vehicle: saline.
Where [2] appears, read: dose: 2.5 mg/kg/injection, schedule: Q04DX003 (ip), vehicle: saline.
The mark [3] stands for this setting: dose: 150.0 mg/kg/injection, schedule: Q04DX003 (sc), vehicle: saline.
Setting [4] is: dose: 300.0 mg/kg/injection, schedule: Q04DX003 (sc), vehicle: saline.
[5] abbreviates: dose: 150.0 mg/kg/injection, schedule: Q04DX003 (ip), vehicle: Klucel (hydroxypropylcellulose) (HPC).

Each structure is given as a SMILES string. “And” between values parts separate entries of the source, which are not always exact repeats. Identical values can stand only once. Inconclusive results are not listed.

Turning to `Nc1ncn(C2OC(CO)C(O)C2O)c(=O)n1` (stereo not given), the T/C is, setting by setting: (dose: 0.19 mg/kg/injection, schedule: Q01DX010 (ip), vehicle: saline) 307 % of control; (dose: 0.19 mg/kg/injection, schedule: Q01DX010 (sc), vehicle: saline) 83 % of control; (dose: 0.38 mg/kg/injection, schedule: Q01DX010 (ip), vehicle: saline) 261 % of control; (dose: 0.63 mg/kg/injection, schedule: Q04DX003 (ip), vehicle: saline) 73 % of control; (dose: 0.63 mg/kg/injection, schedule: Q04DX003 (sc), vehicle: saline) 22 % of control; (dose: 0.75 mg/kg/injection, schedule: Q01DX010 (ip), vehicle: saline) 86 % of control. In addition, the T/C is 69 % of control (dose: 0.75 mg/kg/injection, schedule: Q01DX010 (sc), vehicle: saline); 91 % of control under setting [1]; 40 % of control (dose: 1.25 mg/kg/injection, schedule: Q04DX003 (sc), vehicle: saline); 249 % of control (dose: 1.5 mg/kg/injection, schedule: Q01DX010 (ip), vehicle: saline); 94 % of control under setting [2]; 36 % of control (dose: 2.5 mg/kg/injection, schedule: Q04DX003 (sc), vehicle: saline). For the same compound, the T/C by setting is: (dose: 5.0 mg/kg/injection, schedule: Q04DX003 (ip), vehicle: saline) 31 % of control; (dose: 10.0 mg/kg/injection, schedule: Q04DX003 (sc), vehicle: saline) 23 % of control; (dose: 100.0 mg/kg/injection, schedule: Q04DX003 (sc), vehicle: saline) 15 % of control; under setting [3], 21 % of control; (dose: 200.0 mg/kg/injection, schedule: Q04DX003 (sc), vehicle: saline) 15 % of control; under setting [4], 8 % of control. For the same compound, the T/C reads like this: (dose: 400.0 mg/kg/injection, schedule: Q04DX003 (sc), vehicle: saline) 4 % of control; (dose: 600.0 mg/kg/injection, schedule: Q04DX003 (sc), vehicle: saline) -45 % of control; (dose: 800.0 mg/kg/injection, schedule: Q04DX003 (sc), vehicle: saline) -50 % of control; (dose: 1200.0 mg/kg/injection, schedule: Q04DX003 (sc), vehicle: saline) -43 % of control.
As for `O=C(O)CC(NC(=O)CP(=O)(O)O)C(=O)O` (stereo not given), the T/C is 36 % of control (dose: 50.0 mg/kg/injection, schedule: Q01DX010 (sc), vehicle: saline); 16 % of control (dose: 100.0 mg/kg/injection, schedule: Q01DX010 (sc), vehicle: saline); 5 % of control (dose: 200.0 mg/kg/injection, schedule: Q01DX010 (sc), vehicle: saline).
For `C[C@]12CCC(=O)C(O)=C1CC[C@@H]1[C@@H]2CC[C@]2(C)C(=O)CC[C@@H]12`, the T/C reads like this: under setting [5], 101 % of control; (dose: 300.0 mg/kg/injection, schedule: Q04DX003 (ip), vehicle: Klucel (hydroxypropylcellulose) (HPC)) 96 % of control; (dose: 600.0 mg/kg/injection, schedule: Q04DX003 (ip), vehicle: Klucel (hydroxypropylcellulose) (HPC)) 122 % of control; (dose: 1200.0 mg/kg/injection, schedule: Q04DX003 (ip), vehicle: Klucel (hydroxypropylcellulose) (HPC)) 113 % of control.
Take `CCC(=O)N(C)[C@@H](C)C(=O)O[C@H]1CC(=O)N(C)c2cc(cc(OC)c2Cl)C/C(C)=C/C=C[C@@H](OC)[C@@]2(O)C[C@H](OC(=O)N2)[C@@H](C)[C@@H]2O[C@@]12C`: the T/C is, setting by setting: (dose: 0.12 mg/kg/injection, schedule: Q04DX003 (sc), vehicle: saline + alcohol) 100 % of control; (dose: 0.25 mg/kg/injection, schedule: Q04DX003 (sc), vehicle: saline + alcohol) 48 % of control; (dose: 0.5 mg/kg/injection, schedule: Q04DX003 (sc), vehicle: saline + alcohol) 5 % of control; (dose: 7.5 micrograms/kg/injection, schedule: Q04DX004 (ip), vehicle: saline + alcohol) 115 % of control; (dose: 15.0 micrograms/kg/injection, schedule: Q04DX004 (ip), vehicle: saline + alcohol) 67 % of control.
With `c1ccc2c(c1)[As]=c1ccccc1=[As]2` (stereo not given), the T/C reads like this: (dose: 75.0 mg/kg/injection, schedule: Q04DX003 (sc), vehicle: saline) 108 % of control; under setting [3], 87 % of control; under setting [4], 99 % of control.
As for `Cc1ccc(C(=O)NC2C(=O)NC(C(C)C)C(=O)N3CCCC3C(=O)N(C)CC(=O)N(C)C(C(C)C)C(=O)OC2C)c2c1Oc1c(c(C(=O)NC3C(=O)NC(C(C)C)C(=O)N4CCCC4C(=O)N(C)CC(=O)N(C)C(C(C)C)C(=O)OC3C)c3nc(-c4ccccc4)c(=O)oc3c1C)N2` (stereo not given), the T/C runs as follows: (dose: 1.0 mg/kg/injection, schedule: Q04DX003 (ip), vehicle: water) 16 % of control and 26 % of control; (dose: 2.0 mg/kg/injection, schedule: Q04DX003 (ip), vehicle: water) 5 % of control.
`N=C(N)c1nn(C2OC(CO)C(O)C2O)c2nc[nH]c(=O)c12` (stereo not given): the T/C was 92 % of control (dose: 12.5 mg/kg/injection, schedule: Q04DX003 (ip), vehicle: Klucel + Tween-80); 42 % of control (dose: 25.0 mg/kg/injection, schedule: Q04DX003 (ip), vehicle: Klucel + Tween-80); 95 % of control (dose: 25.0 mg/kg/injection, schedule: Q04DX003 (ip), vehicle: distilled water + Tween-80 + alcohol); 83 % of control (dose: 50.0 mg/kg/injection, schedule: Q04DX003 (ip), vehicle: distilled water + Tween-80 + alcohol); 36 % of control (dose: 75.0 mg/kg/injection, schedule: Q04DX003 (ip), vehicle: Klucel + Tween-80); 4 % of control (dose: 100.0 mg/kg/injection, schedule: Q04DX003 (ip), vehicle: distilled water + Tween-80 + alcohol). In addition, the T/C (dose: 125.0 mg/kg/injection, schedule: Q04DX003 (ip), vehicle: Klucel + Tween-80) was 9 % of control.
For the compound `COc1cc2c(c3c1c(=O)c1ccccc1n3C)C=CC(C)(C)O2`, the T/C runs as follows: (dose: 37.5 mg/kg/injection, schedule: Q04DX003 (ip), vehicle: Klucel (hydroxypropylcellulose) (HPC)) 54 % of control; (dose: 75.0 mg/kg/injection, schedule: Q04DX003 (ip), vehicle: Klucel (hydroxypropylcellulose) (HPC)) 40 % of control; under setting [5], 21 % of control.
Take `CC1OC2CC(O)C1(O)C1=C2C(O)=C(C(N)=O)C(=N)C1=O` (stereo not given): the T/C reads like this: (dose: 0.62 mg/kg/injection, schedule: Q04DX003 (ip), vehicle: saline) 99 % of control; under setting [1], 62 % of control; under setting [2], 101 % of control.
Take `NC(CNC(=O)CBr)C(=O)O` (stereo not given): the T/C is 82 % of control (dose: 37.5 mg/kg/injection, schedule: Q04DX003 (sc), vehicle: water) and 54 % of control (dose: 150.0 mg/kg/injection, schedule: Q04DX003 (sc), vehicle: water).
For `CCCCNc1ccc2nnc(C)n2n1`, the T/C (dose: 150.0 mg/kg/injection, schedule: Q04DX003 (ip), vehicle: DMSO) is 94 % of control and 108 % of control; the T/C (dose: 300.0 mg/kg/injection, schedule: Q04DX003 (ip), vehicle: DMSO) is 78 % of control and 88 % of control.
As to `Nc1nc([Se]c2nc(N)nc3c2ncn3C2OC(CO)C(O)C2O)c2ncn(C3OC(CO)C(O)C3O)c2n1` (stereo not given), the T/C is, setting by setting: (dose: 100.0 mg/kg/injection, schedule: Q04DX003 (ip), vehicle: distilled water + Tween-80) 77 % of control; (dose: 200.0 mg/kg/injection, schedule: Q04DX003 (ip), vehicle: distilled water + Tween-80) 78 % of control; (dose: 400.0 mg/kg/injection, schedule: Q04DX003 (ip), vehicle: distilled water + Tween-80) 34 % of control.
Regarding `C[n+]1c(-c2ccc(NC(=O)c3ccc(C(=O)Nc4ccc(-c5cn6ccccc6[n+]5C)cc4)cc3)cc2)cn2ccccc21`, under “dose: 12.5 mg/kg/injection, schedule: Q04DX003 (ip), vehicle: saline with Tween-80”, the T/C is 41 % of control.
`O=C1CN(CCN2CC(=O)N(CN3CCOCC3)C(=O)C2)CC(=O)N1CN1CCOCC1`: the T/C by setting is: (dose: 150.0 mg/kg/injection, schedule: Q04DX003 (ip), vehicle: water) 56 % of control; (dose: 300.0 mg/kg/injection, schedule: Q04DX003 (ip), vehicle: water) 58 % of control.
On to `CCOc1ccc(C(C)c2cc3c(cc2OC)OCO3)cc1` (stereo not given), for which the T/C (dose: 150.0 mg/kg/injection, schedule: Q04DX003 (ip), vehicle: distilled water + Tween-80) was 93 % of control; the T/C (dose: 300.0 mg/kg/injection, schedule: Q04DX003 (ip), vehicle: distilled water + Tween-80) was 56 % of control; the T/C (dose: 600.0 mg/kg/injection, schedule: Q04DX003 (ip), vehicle: distilled water + Tween-80) is 27 % of control.
